The values below come from patent US6057286A, “Identification and use of selective inhibitors of glycogen synthase kinase 3” (Chiron Corporation, priority 1997, dated 2000).

One assay relates to HepG2 liver cells. The assay can be described thus: Insulin- and glucose-stimulated glycogen synthase activity in stable tissue culture cells. The class given is cell-based. To be noted: addition of insulin and glucose, in the presence of the GSK3 inhibitor. From the text: Assays for glucose uptake and glycogen synthesis can be conducted as described for cell-based assays generally. To measure glucose uptake and glycogen synthesis, a variety of stable tissue culture cell lines that respond to insulin stimulation by increasing the synthesis of glycogen and increasing the rate of glucose uptake from the medium can be used. These include HepG2 liver cells, CHO-IR cells, and Hirc cells. Under appropriate conditions the addition of insulin and glucose to HepG2 cells stimulates glycogen synthase activity and this stimulation of potentiated in the presence of the GSK3 inhibitor iodotubercidin. The response of glucose uptake in these cells to insulin, glucose and inhibitor can be as much as six fold, and consequently this assay is useful to detect the ability of inhibitors to potentiate glycogen synthesis in cells.

A further assay concerns Drosophila cells. The assay can be described thus: β-catenin stabilization assay of intracellular GSK3 activity (western blot). The format is cell-based. The note with it: addition to Drosophila cells; detected on a western blot. From the text:
Other assays that test functional GSK3 also provide a further test of intracellular GSK3 activity. These assays rely on the ability to observe indirect consequences of GSK3 activity within cells. An example of such an assay involves β-catenin stabilization. Cellular GSK3 activity leads to the destabilization of cytosolic pools of β-catenin in certain types of cell. Consequently, inhibition of GSK3 results in β-catenin stabilization and accumulation, which be detected on a western blot. […] Similarly, LiCl in the cell culture medium causes an increase in intracellular β-catenin levels as described in Stambolic et al, Cur. Biol. 6(12): 1664-8 (1996).

In the case of `Nc1ncnc2c1c(I)cn2[C@@H]1O[C@H](CO)[C@@H](O)[C@H]1O` [iodotubercidin], the “stimulation of glycogen synthase activity by insulin and glucose” value in the assay on HepG2 liver cells is on record as “potentiated”. Besides, the β-catenin accumulation entry in the assay on Drosophila cells is “leads to β-catenin accumulation”.
